Like-named read-outs stand apart in the source and are kept apart here.
What was measured:
[1] = Acute toxicity test (Japan Food Analysis Center); assay type: in vivo; conditions: tested in Japan Food Analysis Center
Protocol: The desired product iso-liquiritigenin were tested for acute toxicity in Japan Food Analysis Center and it was confirmed that there is no toxicity.

[2] = tested on: human liver cancer cells SMMC7721; conditions: cited from earlier work
[3] = tested on: human lung cancer cells A549; conditions: cited from earlier work
[4] = tested on: human poorly differentiated gastric cancer line BGC-823; conditions: cited from earlier work
[5] = tested on: human leukemia cells HL-60; conditions: cited from earlier work

O=C(/C=C/c1ccc(O)cc1)c1ccc(O)cc1O [iso-liquiritigenin]
acute toxicity [1]: no toxicity

COc1cccc2c1C(=O)c1c(O)c3c(c(O)c1C2=O)C[C@@](O)(C(=O)CO)C[C@@H]3O[C@H]1C[C@H](N)[C@H](O)[C@H](C)O1 [adriamycin, reference compound]
SMMC7721 Inhibition % ([2]; Conc. 1 × 10^−5 Mol/l): 97.47%
SMMC7721 Inhibition % ([2]; Conc. 1 × 10^−6 Mol/l): 58.40%
SMMC7721 Inhibition % ([2]; Conc. 1 × 10^−7 Mol/l): 10.28%
A549 Inhibition % ([3]; Conc. 1 × 10^−5 Mol/l): 90.44%
A549 Inhibition % ([3]; Conc. 1 × 10^−6 Mol/l): 16.42%
A549 Inhibition % ([3]; Conc. 1 × 10^−7 Mol/l): 16.42%
BGC-823 Inhibition % ([4]; Conc. 1 × 10^−5 Mol/l): 97.67%
BGC-823 Inhibition % ([4]; Conc. 1 × 10^−6 Mol/l): 45.80%
BGC-823 Inhibition % ([4]; Conc. 1 × 10^−7 Mol/l): 17.86%
HL-60 Inhibition % ([5]; Conc. 1 × 10^−5 Mol/l): 99.09%

O=C1C[C@@H](c2ccc(O)cc2)Oc2cc(O)ccc21 [Liquiritigenin, liquiritigenin]
SMMC7721 Inhibition % ([2]; Conc. 1 μg/ml): 23.17%
SMMC7721 Inhibition % ([2]; Conc. 10 μg/ml): 96.08%
SMMC7721 Inhibition % ([2]; Conc. 100 μg/ml): 98.00%
A549 Inhibition % ([3]; Conc. 1 μg/ml): 7.76%
A549 Inhibition % ([3]; Conc. 10 μg/ml): 35.66%
A549 Inhibition % ([3]; Conc. 10 μg/ml, listed as Liquiritigenin (−)): 35.06%
A549 Inhibition % ([3]; Conc. 100 μg/ml): 93.03%
BGC-823 Inhibition % ([4]; Conc. 1 μg/ml): 24.41%
BGC-823 Inhibition % ([4]; Conc. 10 μg/ml): 73.76%
BGC-823 Inhibition % ([4]; Conc. 100 μg/ml): 97.52%
HL-60 Inhibition % ([5]; Conc. 1 μg/ml): 50.95%
HL-60 Inhibition % ([5]; Conc. 10 μg/ml): 64.40%
HL-60 Inhibition % ([5]; Conc. 100 μg/ml): 99.30%

Reference: patent publication US10023552B2, “Method of preparing a liquiritigenin precursor” (priority 2014, dated 2018)
